# Results published in patent publication US20230243016A1, “APPLICATIONS OF CARBOXYLIC COMPOUND SERVING AS EXTRACTING AGENT AND METAL ION EXTRACTION METHOD” (BOTREE CYCLING SCI & TECH CO., LTD., priority 2020, published 2023).
# Assays:
# [1] = Separation coefficients between non-ferrous metal ions (Example 1, Comparative Example 3); type: physicochemical
# Experimental: (§1) In the embodiments of the present application, after extraction, a metal ion concentration of the aqueous phase is analyzed using the inductively coupled plasma optical emission spectroscopy (ICP-OES), and a metal ion concentration of the organic phase is calculated by the difference subtraction method.
# (§2) Extractant 191 was dissolved in dodecane to prepare a 0.2 mol/L organic phase, and 0.01 mol/L sulfate solutions of Cu^2+, Zn^2+, Cd^2+, Ni^2+, Co^2+, Mn^2+, Ca^2+, Mg^2+, and Li^+ were prepared as aqueous phases, respectively.
# This comparative example differs from Example 1 in that Extractant 191 was replaced with extractant Versatic 10 (commercially available, with an acid content of 98%).
# [2] = Extraction for a magnesium-enriched nickel chloride solution (Example 5); type: physicochemical; conditions: 0.31 mol/L in dodecane; chloride solution 1.33 g/L Ni, 4 g/L Mg; O/A 1:1
# Experimental: as §1
# Extractant 191 was dissolved in dodecane to prepare a 0.31 mol/L organic phase, and an aqueous phase was the magnesium-enriched nickel chloride solution containing 1.33 g/L Ni and 4 g/L Mg.
# [3] = Extraction performance for non-ferrous metal ions (Example 1); type: physicochemical; conditions: 0.2 mol/L in dodecane, 0.01 mol/L sulfate solution, O/A 1:1
# Experimental: as §1, §2
# [4] = Back extraction of organic phase loaded with rare earth ions (Example 8); type: physicochemical; conditions: organic phase loaded with 0.10 mol/L Lu; 1.0 mol/L hydrochloric acid; O/A 1:1
# [5] = Separation coefficients between trivalent ions (Example 2); type: physicochemical
# Experimental: as §1
# (§3) The Extractant 195 was dissolved in toluene to prepare a 0.1 mol/L organic phase, and 0.005 mol/L chloride solutions of Fe^3+, Ga^3+, In^3+, Sc^3+, Cr^3+, Al^3+, Lu^3+, Ho^3+, and Gd^3+ were prepared as aqueous phases, respectively.
# [6] = Extraction performance for trivalent ions (Example 2); type: physicochemical; conditions: 0.1 mol/L in toluene, 0.005 mol/L chloride solution, O/A 1:1
# Experimental: as §1, §3
# [7] = Extraction from a battery material solution (Example 3, Comparative Example 4); type: physicochemical; conditions: 0.6 mol/L in Escaid 110
# Experimental: as §1
# Extractant 196 was dissolved in Escaid 110 to prepared a 0.6 mol/L organic phase, and the battery material solution contained Ni (46.20 g/L), Co (20.56 g/L), Mn (23.93 g/L), Ca (0.43 g/L), and Mg (0.21 g/L).
# The extractant was dissolved in Escaid 110 and prepared to a 0.6 mol/L organic phase, and a battery material solution contained Ni (46.20 g/L), Co (20.56 g/L), Mn (23.93 g/L), Ca (0.43 g/L), and Mg (0.21 g/L). […] By observing the experimental phenomenon where the extractant exists in the battery material solution system, it can be seen that when the aqueous phase equilibrium pH is greater than 5.33, the phase separation phenomenon becomes worse, the aqueous phase is turbid and viscous, and the organic phase gradually becomes colorless; it can be seen from FIG. 7 that when the aqueous phase equilibrium pH is greater than 5.33, the extraction capability of the extractant for metal ions decreases.
# [8] = Saturation capacity test for Ni^2+ (Example 7); type: physicochemical; conditions: 0.6 mol/L in dodecane, saponified to 60%; repeated contact with 50 g/L NiSO4
# Source text: The organic phase was back-extracted and the saturation capacity of Extractant 196 for Ni^2+ was obtained to be about 16.9 g/L.
# [9] = Extraction performance for rare earth ions, mixed chloride solution (Example 4); type: physicochemical; conditions: 2 mol/L in dodecane, O/A 1:1, ammonia saponification
# Experimental: as §1
# [10] = organic phase loaded with Lu; 4 mol/L hydrochloric acid (general practice); cited from earlier work
# [11] = pH½, Example 1 / Comparative Example 3 system
# [12] = aqueous phase equilibrium pH greater than 5.33, O/A 8:1
smiles,measurement,setting,value
CCCCCCCCCCC(CCCCCC)C(=O)O (stereo not drawn) [Extractant 191],Separation coefficient Cd^2+ / Ca^2+,"[1]; Cd^2+, row Ca^2+, Example 1 system",75.86
same,Separation coefficient Cd^2+ / Co^2+,"[1]; Cd^2+, row Co^2+, Example 1 system",17.38
same,Separation coefficient Cd^2+ / Mg^2+,"[1]; Cd^2+, row Mg^2+, Example 1 system",263.03
same,Separation coefficient Cd^2+ / Mn^2+,"[1]; Cd^2+, row Mn^2+, Example 1 system",18.20
same,Separation coefficient Cd^2+ / Ni^2+,"[1]; Cd^2+, row Ni^2+, Example 1 system",8.71
same,Separation coefficient Co^2+ / Ca^2+,"[1]; Co^2+, row Ca^2+, Example 1 system",4.37
same,Separation coefficient Co^2+ / Mg^2+,"[1]; Co^2+, row Mg^2+, Example 1 system",15.14
same,Separation coefficient Co^2+ / Mn^2+,"[1]; Co^2+, row Mn^2+, Example 1 system",1.05
same,Separation coefficients between various ions (all pairs),"[1]; Cu^2+, Zn^2+, Cd^2+, Ni^2+, Co^2+, Mn^2+, Ca^2+, Mg^2+, Li^+",greater than 1
same,Separation coefficient Cu^2+ / Ca^2+,"[1]; Cu^2+, row Ca^2+, Example 1 system",457088.19
same,Separation coefficient Cu^2+ / Cd^2+,"[1]; Cu^2+, row Cd^2+, Example 1 system",6025.60
same,Separation coefficient Cu^2+ / Co^2+,"[1]; Cu^2+, row Co^2+, Example 1 system",104712.85
same,Separation coefficient Cu^2+ / Mg^2+,"[1]; Cu^2+, row Mg^2+, Example 1 system",1584893.19
same,Separation coefficient Cu^2+ / Mn^2+,"[1]; Cu^2+, row Mn^2+, Example 1 system",109647.82
same,Separation coefficient Cu^2+ / Ni^2+,"[1]; Cu^2+, row Ni^2+, Example 1 system",52480.75
same,Separation coefficient Cu^2+ / Zn^2+,"[1]; Cu^2+, row Zn^2+, Example 1 system",691.83
same,Extraction order of ions (FIG. 1),"[1]; E%-pH curves, Example 1",extracts nickel and cobalt ions in order before calcium and magnesium
same,Separation coefficient Ni^2+ / Ca^2+,"[1]; Ni^2+, row Ca^2+, Example 1 system",8.71
same,Separation coefficient Ni^2+ / Co^2+,"[1]; Ni^2+, row Co^2+, Example 1 system",2.00
same,Separation coefficient Ni^2+ / Mg^2+,"[1]; Ni^2+, row Mg^2+, Example 1 system",30.20
same,Separation coefficient Ni^2+ / Mn^2+,"[1]; Ni^2+, row Mn^2+, Example 1 system",2.09
same,Separation coefficient Zn^2+ / Ca^2+,"[1]; Zn^2+, row Ca^2+, Example 1 system",660.69
same,Separation coefficient Zn^2+ / Cd^2+,"[1]; Zn^2+, row Cd^2+, Example 1 system",8.71
same,Separation coefficient Zn^2+ / Co^2+,"[1]; Zn^2+, row Co^2+, Example 1 system",151.36
same,Separation coefficient Zn^2+ / Mg^2+,"[1]; Zn^2+, row Mg^2+, Example 1 system",2290.87
same,Separation coefficient Zn^2+ / Mn^2+,"[1]; Zn^2+, row Mn^2+, Example 1 system",158.49
same,Separation coefficient Zn^2+ / Ni^2+,"[1]; Zn^2+, row Ni^2+, Example 1 system",75.86
same,Separation coefficient Ca^2+ / Mg^2+,"[1]; column Ca^2+, row Mg^2+, Example 1 system",3.47
same,Separation coefficient Mn^2+ / Ca^2+,"[1]; column Mn^2+, row Ca^2+, Example 1 system",4.17
same,Separation coefficient Mn^2+ / Mg^2+,"[1]; column Mn^2+, row Mg^2+, Example 1 system",14.45
same,βNi/Ca (separation coefficient),[1]; [11],8.71
same,βNi/Co (separation coefficient),[1]; [11],2.00
same,βNi/Mg (separation coefficient),[1]; [11],30.2
same,βNi/Mn (separation coefficient),[1]; [11],2.09
same,βNi/Zn (separation coefficient),[1]; [11],75.86
same,Separation coefficients higher compared with Versatic 10,[1]; same test condition,20-30%
same,Extraction order of nickel and magnesium (FIG. 6),[2],extracts nickel in order before magnesium
same,Separation coefficient between nickel and magnesium,[2],about 833
same,Extraction pH½ for Ca^2+,[3],7.32
same,Extraction pH½ for Cd^2+,[3],6.38
same,Extraction pH½ for Co^2+,[3],7.00
same,Extraction pH½ for Li^+,[3],9.75
same,Extraction pH½ for Mg^2+,[3],7.59
same,Extraction pH½ for Mn^2+,[3],7.01
same,Extraction pH½ for Ni^2+,[3],6.85
same,Extraction pH½ for Zn^2+,[3],5.91
same,Extraction pH½ for Cu^2+,[3]; pH by 6 mol/L NaOH saponification,4.49
CCCCCCCCC(CC)C(=O)O (stereo not drawn) [Extractant 192],Back extraction rate,[4],greater than 99%
CCCCCCCC(CCCCC)C(=O)O (stereo not drawn) [Extractant 195],Separation coefficients between various ions (all pairs),"[5]; Fe^3+, Ga^3+, In^3+, Sc^3+, Cr^3+, Al^3+, Lu^3+, Ho^3+, Gd^3+",greater than 1
same,Separation coefficient Fe^3+ / Al^3+,"[5]; Fe^3+, row Al^3+, Example 2 system",95499.26
same,Separation coefficient Fe^3+ / Cr^3+,"[5]; Fe^3+, row Cr^3+, Example 2 system",1862.09
same,Separation coefficient Fe^3+ / Ga^3+,"[5]; Fe^3+, row Ga^3+, Example 2 system",95.50
same,Separation coefficient Fe^3+ / In^3+,"[5]; Fe^3+, row In^3+, Example 2 system",177.83
same,Separation coefficient Fe^3+ / Sc^3+,"[5]; Fe^3+, row Sc^3+, Example 2 system",1230.27
same,Separation coefficient Ga^3+ / Al^3+,"[5]; Ga^3+, row Al^3+, Example 2 system",1000.00
same,Separation coefficient Ga^3+ / Cr^3+,"[5]; Ga^3+, row Cr^3+, Example 2 system",19.50
same,Separation coefficient Ga^3+ / In^3+,"[5]; Ga^3+, row In^3+, Example 2 system",1.86
same,Separation coefficient Ga^3+ / Sc^3+,"[5]; Ga^3+, row Sc^3+, Example 2 system",12.88
same,Separation coefficient In^3+ / Al^3+,"[5]; In^3+, row Al^3+, Example 2 system",537.03
same,Separation coefficient In^3+ / Cr^3+,"[5]; In^3+, row Cr^3+, Example 2 system",10.47
same,Separation coefficient In^3+ / Sc^3+,"[5]; In^3+, row Sc^3+, Example 2 system",6.92
same,Separation coefficient Cr^3+ / Al^3+,"[5]; column Cr^3+, row Al^3+, Example 2 system",51.29
same,Separation coefficient Ho^3+ / Gd^3+,"[5]; column Ho^3+, row Gd^3+, Example 2 system",3.98
same,Separation coefficient Lu^3+ / Gd^3+,"[5]; column Lu^3+, row Gd^3+, Example 2 system",15.85
same,Separation coefficient Lu^3+ / Ho^3+,"[5]; column Lu^3+, row Ho^3+, Example 2 system",3.98
same,Separation coefficient Sc^3+ / Al^3+,"[5]; column Sc^3+, row Al^3+, Example 2 system",77.62
same,Separation coefficient Sc^3+ / Cr^3+,"[5]; column Sc^3+, row Cr^3+, Example 2 system",1.51
same,Extraction pH½ for Al^3+,[6],3.60
same,Extraction pH½ for Cr^3+,[6],3.03
same,Extraction pH½ for Ga^3+,[6],2.60
same,Extraction pH½ for Gd^3+,[6],5.46
same,Extraction pH½ for Ho^3+,[6],5.26
same,Extraction pH½ for In^3+,[6],2.69
same,Extraction pH½ for Lu^3+,[6],5.06
same,Extraction pH½ for Sc^3+,[6],2.97
same,Extraction pH½ for Fe^3+,[6]; pH by 8 mol/L NaOH saponification,1.94
CCCCCCCCC(CCCCCC)C(=O)O (stereo not drawn) [Extractant 196],"Extraction of Ni, Co and Mn from the battery material solution","[7]; O/A 8:1, pH greater than 6.8",almost completely extracted
same,Extraction rate of Ca and Mg from the battery material solution,"[7]; O/A 8:1, pH greater than 6.8",low extraction rate
same,"Extraction of Ni, Co and Mn from the battery material solution","[7]; pH less than 7.2, O/A 5:1 and 8:1",selectively extracted
same,Saturation capacity for Ni^2+,[8],about 16.9 g/L
same,Extraction ability for rare earth ions (FIG. 5),[9],gradually decreases from heavy rare earths to light rare earths
CCCCC(CC)COP(=O)(O)CC(CC)CCCC (stereo not drawn) [Extractant P507],Primary back extraction rate,[10],about 80%
"CCCCCCCCCCCCCCCCCC(=O)O [stearic acid, reference compound]",Extraction capability for metal ions (FIG. 7),[7]; [12],decreases
same,Phase separation phenomenon,[7]; [12],becomes worse
